Assay results: DBAASP
Converted amounts (≈) assume the structure as drawn. “And” between values parts separate entries of the source, which are not always exact repeats. Identical values can stand only once. One block for each compound: values may come before it.

Key:
Test in all cases: ≥ marks a high value that may be exact or a test limit, other limits are often not marked, values filed in µg/mL are converted to µM
[1] = test system: Pseudomonas aeruginosa
[2] = test system: Staphylococcus aureus
[3] = test system: Escherichia coli
[4] = test system: Staphylococcus aureus MR
[5] = test system: Escherichia coli ATCC 2592
[6] = test system: Staphylococcus aureus ATCC 6538
[7] = test system: Pseudomonas aeruginosa ATCC 9027
[8] = test system: Candida albicans ATCC 36232
[9] = test system: Pseudomonas aeruginosa ATCC 10145
[10] = test system: Pseudomonas aeruginosa H1001
[11] = test system: Micrococcus luteus ATCC 9341
[12] = test system: Pseudomonas aeruginosa H103
[13] = test system: Staphylococcus epidermidis
[14] = test system: Staphylococcus aureus ATCC 25923
[15] = test system: Escherichia coli UB1005
[16] = test system: Enterococcus faecalis ATCC 29212
[17] = test system: Candida albicans
[18] = test system: Salmonella enterica serovar Typhimurium
[19] = test system: Erwinia amylovora PMV 6076
[20] = test system: Pseudomonas syringae pv. syringae EPS 94
[21] = test system: Micrococcus luteus
[22] = test system: Saccharomyces cerevisiae
[23] = test system: Escherichia coli ATCC 25922
[24] = test system: Pseudomonas aeruginosa ATCC 15692
[25] = test system: Acinetobacter baumannii
[26] = test system: Pseudomonas aeruginosa PAO1

Compound: CC[C@H](C)[C@H](NC(=O)[C@H](C)NC(=O)[C@H](CC(C)C)NC(=O)[C@H](CCCN=C(N)N)NC(=O)[C@H](CC(C)C)NC(=O)[C@H](C)N)C(=O)N[C@@H](CCCN=C(N)N)C(=O)N[C@@H](CCCCN)C(=O)N[C@@H](CCCN=C(N)N)C(N)=O [ALRLAIRKR]
MIC [1]: 13.7 µM (≈ 15 µg/mL)
MIC [2]: 4.56 µM (≈ 5 µg/mL)
MIC [3]: 3.65 µM (≈ 4 µg/mL)
MIC [4]: ≥ 43.8 µM

Compound: CC[C@H](C)[C@H](NC(=O)[C@H](C)NC(=O)[C@H](CC(C)C)NC(=O)[C@H](CC(C)C)NC(=O)[C@H](Cc1c[nH]c2ccccc12)NC(=O)[C@H](C)N)C(=O)N[C@@H](CCCN=C(N)N)C(=O)N[C@@H](CCCCN)C(=O)N[C@@H](CCCN=C(N)N)C(N)=O [AWLLAIRKR]
MIC [1]: 3.55 µM (≈ 4 µg/mL)
MIC [2]: 2.66 µM (≈ 3 µg/mL)
MIC [3]: 4.44 µM (≈ 5 µg/mL)
MIC [4]: 22.2 µM (≈ 25 µg/mL)

Compound: CC(C)C[C@H](NC(=O)[C@H](CS)NC(=O)[C@H](CCCCN)NC(=O)[C@H](C)NC(=O)[C@H](C)NC(=O)[C@H](CS)NC(=O)[C@H](C)NC(=O)[C@H](C)NC(=O)[C@@H](N)CCCCN)C(=O)N[C@@H](Cc1c[nH]c2ccccc12)C(=O)N[C@@H](CCCN=C(N)N)C(N)=O [KAACAAKCLWR]
MIC [5]: ≥ 164 µM
MIC [6]: 41 µM and 81.9 µM
MIC [7]: 81.9 µM and 164 µM
MIC [8]: ≥ 164 µM

Compound: C[C@H](NC(=O)[C@H](C)NC(=O)[C@H](CCCCN)NC(=O)[C@H](CCCCN)NC(=O)[C@H](C)NC(=O)[C@H](Cc1ccccc1)NC(=O)[C@H](CCCCN)NC(=O)[C@H](CCCCN)NC(=O)[C@H](C)NC(=O)[C@H](C)NC(=O)[C@H](CCCCN)NC(=O)[C@H](CCCCN)NC(=O)[C@H](C)NC(=O)[C@H](Cc1ccccc1)NC(=O)[C@@H](N)CCCCN)C(=O)N[C@@H](CCCCN)C(=O)O [KFAKKAAKKFAKKAAK]
MIC [9]: ≥ 142 µM

Compound: NCCCC[C@H](NC(=O)[C@H](CCCN=C(N)N)NC(=O)[C@H](Cc1c[nH]c2ccccc12)NC(=O)[C@H](CCCCN)NC(=O)[C@H](Cc1c[nH]c2ccccc12)NC(=O)[C@H](Cc1c[nH]c2ccccc12)NC(=O)[C@H](Cc1cnc[nH]1)NC(=O)[C@H](Cc1ccccc1)NC(=O)[C@@H](N)CCCCN)C(N)=O [KFHWWKWRK]
MIC [10]: ≥ 178 µM

Compound: CC(C)[C@H](NC(=O)[C@H](CCCCN)NC(=O)[C@H](Cc1ccccc1)NC(=O)[C@@H](NC(=O)[C@@H](NC(=O)[C@H](CCCCN)NC(=O)[C@@H](N)CCCCN)C(C)C)C(C)C)C(=O)N[C@@H](CCCCN)C(=O)N[C@@H](Cc1ccccc1)C(=O)N[C@@H](CCCCN)C(=O)N[C@@H](CCCCN)C(=O)N[C@@H](CCCCN)C(N)=O [KKVVFKVKFKKK]
MIC [11]: 2.08 µM (≈ 3.13 µg/mL)
MIC [6]: 2.08 µM (≈ 3.13 µg/mL)
MIC [8]: 2.08 µM and 1.47 µM and 4.15 µM

Compound: CC[C@H](C)[C@H](NC(=O)[C@H](CCCCN)NC(=O)[C@H](Cc1c[nH]c2ccccc12)NC(=O)[C@H](CCCCN)NC(=O)[C@@H](N)CCCCN)C(=O)N[C@H](C(=O)N[C@H](C(=O)N[C@H](C(=O)N[C@@H](CCCN=C(N)N)C(=O)N[C@@H](Cc1c[nH]c2ccccc12)C(=O)N[C@@H](CCCN=C(N)N)C(=O)N[C@@H](CCCN=C(N)N)C(N)=O)[C@@H](C)CC)C(C)C)C(C)C [KKWKIVVIRWRR]
MIC [10]: 1.2 µM (≈ 2 µg/mL)

Compound: CC[C@H](C)[C@H](NC(=O)[C@H](C)NC(=O)[C@@H](NC(=O)[C@H](CCCCN)NC(=O)[C@H](CCCCN)NC(=O)[C@H](Cc1cnc[nH]1)NC(=O)[C@@H](NC(=O)[C@H](CCCN=C(N)N)NC(=O)[C@H](CS)NC(=O)[C@@H](N)CC(C)C)C(C)C)[C@@H](C)CC)C(=O)O [LCRVHKKIAI]
MIC [10]: ≥ 169 µM

Compound: CC[C@H](C)[C@H](NC(=O)[C@H](C)NC(=O)[C@@H](N)CC(N)=O)C(=O)N[C@@H](CCCCN)C(=O)N[C@@H](CC(C)C)C(=O)N[C@@H](CC(C)C)C(=O)N[C@@H](CS)C(=O)N[C@@H](CCCN=C(N)N)C(=O)N[C@H](C(=O)N[C@@H](Cc1cnc[nH]1)C(=O)O)C(C)C [NAIKLLCRVH]
MIC [10]: ≥ 85.7 µM

Results, then the compound that gave them:

MIC [12]: 13.2 µM (≈ 19.7 µg/mL)
MIC [13]: 1.6 µM (≈ 2.39 µg/mL)
MIC [14]: 3.3 µM (≈ 4.93 µg/mL)
MIC [15]: 1.6 µM (≈ 2.39 µg/mL)
MIC [16]: 3.3 µM (≈ 4.93 µg/mL)
MIC [17]: 13.2 µM (≈ 19.7 µg/mL)
MIC [18]: 3.3 µM (≈ 4.93 µg/mL)
Compound: CC(C)[C@H](NC(=O)[C@H](CCCN=C(N)N)NC(=O)[C@H](Cc1c[nH]c2ccccc12)NC(=O)[C@H](Cc1c[nH]c2ccccc12)NC(=O)[C@H](Cc1c[nH]c2ccccc12)NC(=O)[C@H](CCCN=C(N)N)NC(=O)[C@H](Cc1c[nH]c2ccccc12)NC(=O)[C@@H](N)CCCN=C(N)N)C(=O)N[C@@H](Cc1ccc(O)cc1)C(=O)O [RWRWWWRVY]

MIC [19]: 3.54 µM (≈ 9.25 µg/mL)
MIC [20]: 3.54 µM (≈ 9.25 µg/mL)
Compound: CC[C@H](C)[C@H](NC(=O)[C@H](CCCCN)NC(=O)[C@H](CCCCN)NC(=O)[C@H](Cc1ccccc1)NC(=O)[C@H](CC(C)C)NC(=O)[C@H](CCCCN)NC(=O)[C@H](CCCCN)NC(=O)[C@@H](N)CO)C(=O)N[C@@H](CC(C)C)C(=O)N[C@@H](CCCCN)C(=O)N[C@@H](Cc1ccc(O)cc1)C(=O)N[C@@H](CC(C)C)C(=O)N[C@@H](C)C(=O)NCC(=O)N1CCC[C@H]1C(=O)N[C@@H](C)C(=O)N[C@@H](CCCCN)C(=O)N[C@@H](Cc1ccccc1)C(=O)N[C@@H](CC(C)C)C(=O)N[C@@H](Cc1cnc[nH]1)C(=O)N[C@@H](CO)C(=O)N[C@@H](C)C(=O)N[C@@H](CCCCN)C(=O)O [SKKLFKKILKYLAGPAKFLHSAK]

MIC [21]: 0.5 µM
MIC [14]: 1 µM
MIC [22]: 16 µM
MIC [23]: 2.83 µM
MIC [24]: 5.66 µM
Compound: CC[C@H](C)[C@H](NC(=O)[C@H](CC(C)C)NC(=O)[C@H](CCCCN)NC(=O)[C@H](CO)NC(=O)[C@H](C)NC(=O)CNC(=O)[C@H](CCCCN)NC(=O)[C@H](CC(C)C)NC(=O)[C@H](C)NC(=O)[C@H](CCSC)NC(=O)[C@H](CCCCN)NC(=O)[C@H](C)NC(=O)[C@H](Cc1ccccc1)NC(=O)[C@@H](NC(=O)CNC(=O)[C@H](Cc1ccccc1)NC(=O)[C@H](CC(C)C)NC(=O)[C@@H](N)CO)[C@@H](C)O)C(=O)N1CCC[C@H]1C(=O)N[C@@H](Cc1cnc[nH]1)C(=O)N[C@@H](CC(C)C)C(=O)N[C@@H](CC(C)C)C(=O)N1CCC[C@H]1C(=O)N[C@@H](CO)C(=O)N[C@@H](CCCN=C(N)N)C(=O)N[C@@H](CCC(N)=O)C(=O)N[C@@H](CCC(N)=O)C(=O)O [SLFGTFAKMALKGASKLIPHLLPSRQQ]

MIC [10]: 0.123 µM (≈ 0.3 µg/mL)
Compound: CC[C@H](C)[C@H](NC(=O)[C@H](CCCN=C(N)N)NC(=O)[C@H](CCCN=C(N)N)NC(=O)[C@@H]1CCCN1C(=O)[C@@H]1CCCN1C(=O)[C@H](CCCN=C(N)N)NC(=O)[C@@H]1CCCN1C(=O)[C@H](CCCN=C(N)N)NC(=O)[C@@H]1CCCN1C(=O)[C@H](CC(C)C)NC(=O)[C@H](Cc1ccc(O)cc1)NC(=O)[C@@H]1CCCN1C(=O)[C@@H]1CCCN1C(=O)[C@H](CCCCN)NC(=O)[C@@H]1CCCN1C(=O)[C@@H](N)C(C)C)C(=O)N[C@@H](Cc1ccc(O)cc1)C(=O)N[C@@H](CC(N)=O)C(=O)N[C@@H](CCCN=C(N)N)C(=O)NCC(=O)O [VPKPPYLPRPRPPRRIYNRG]

MIC [14]: 10.6 µM (≈ 16 µg/mL)
MIC [1]: 21.2 µM (≈ 32 µg/mL)
MIC [2]: 15 µM (≈ 22.6 µg/mL)
MIC [25]: 30 µM (≈ 45.3 µg/mL)
MIC [23]: 10.6 µM (≈ 16 µg/mL)
MIC [18]: 10.6 µM (≈ 16 µg/mL)
MIC [26]: 21.2 µM (≈ 32 µg/mL)
MIC [3]: > 84.7 µM
Compound: CC[C@H](C)[C@H](NC(=O)[C@H](CCCN=C(N)N)NC(=O)[C@H](CC(C)C)NC(=O)[C@H](CCC(N)=O)NC(=O)[C@@H](N)C(C)C)C(=O)N[C@@H](CCCN=C(N)N)C(=O)N[C@H](C(=O)N[C@@H](CS)C(=O)N[C@H](C(=O)N[C@H](C(=O)N[C@@H](CCCN=C(N)N)C(=O)N[C@@H](CCCN=C(N)N)C(=O)O)[C@@H](C)CC)C(C)C)C(C)C [VQLRIRVCVIRR]
